What was measured:
uric acid in blood [1] = assay: Multiple dose study (SDD, 14 days): uric acid in blood of healthy subjects; type: in vivo, human; details: 600 mg BID; 30 subjects enrolled in the study
Method: (§1) Uric acid measurements were performed using a commercial colorimetric assay kit (Beckman Coulter).
Multiple oral doses of 100 mg twice daily (BID), 300 mg BID, and 600 mg BID of 4-[2-(5-amino-1H-pyrazol-4-yl)-4-chlorophenoxy]-5-chloro-2-fluoro-N-(1,3-thiazol-4-yl)benzenesulfonamide SDD dispersion for oral administration, and placebo, were investigated for 14 days. Subjects were fasted overnight prior to the morning doses and for at least 2 hours prior to the evening doses. Food was withheld for at least 2 hours postdose.
A total of 30 subjects (all male) were enrolled in the study and 27 subjects completed the study (three subjects were withdrawn due to adverse events during treatment with 600 mg BID 4-[2-(5-amino-1H-pyrazol-4-yl)-4-chlorophenoxy]-5-chloro-2-fluoro-N-(1,3-thiazol-4-yl)benzenesulfonamide).

URAT-1 transporter = biological target: T1, URAT-1 transporter (Homo sapiens, UniProt Q96S37); assay: URAT-1 inhibitor activity: [14C]-uric acid uptake in HEK-URAT1 cells; type: cell-based; details: [14C]-uric acid (20 μM), 2 minutes, normalised to the standard compound benzbromarone, read-out: inhibition of uric acid uptake (IC50)
T1 construct: expressed in transfected cells; host or cells: HEK293 cells, transient transfection with Lipofectamine 2000
T1 sequence (Q96S37 1-553): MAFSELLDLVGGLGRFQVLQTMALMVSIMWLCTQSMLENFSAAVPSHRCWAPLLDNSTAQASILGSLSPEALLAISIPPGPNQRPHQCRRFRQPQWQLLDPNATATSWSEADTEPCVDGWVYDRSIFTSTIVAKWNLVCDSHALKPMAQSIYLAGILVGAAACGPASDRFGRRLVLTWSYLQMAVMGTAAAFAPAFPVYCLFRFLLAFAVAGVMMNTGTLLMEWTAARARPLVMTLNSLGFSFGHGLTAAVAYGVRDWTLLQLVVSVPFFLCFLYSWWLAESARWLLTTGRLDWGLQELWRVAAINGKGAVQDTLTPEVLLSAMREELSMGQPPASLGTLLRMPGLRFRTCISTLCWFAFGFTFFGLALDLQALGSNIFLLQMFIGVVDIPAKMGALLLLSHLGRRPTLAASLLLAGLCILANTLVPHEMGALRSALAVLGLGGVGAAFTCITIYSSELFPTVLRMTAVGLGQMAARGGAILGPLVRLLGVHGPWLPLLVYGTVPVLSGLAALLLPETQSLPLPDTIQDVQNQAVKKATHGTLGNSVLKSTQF
Method: The potency of 4-[2-(5-amino-1H-pyrazol-4-yl)-4-chlorophenoxy]-5-chloro-2-fluoro-N-(1,3-thiazol-4-yl)benzenesulfonamide as an inhibitor of the URAT-1 transporter was determined as follows.
HEK293 cells were grown in medium consisting of Dulbecco's modified Eagle medium (DMEM) with L-GlutaMax (4.5 g of glucose per litre), supplemented with heat-inactivated foetal calf serum (10% v/v), 100 U/mL penicillin and 100 μg/mL streptomycin. The HEK cells were routinely cultured in 75 cm^2 tissue culture flasks in a humidified incubator at approximately 37° C. in approximately 95% air/5% CO2. […]
One day after transfection, culture medium was removed from the wells and the cells were pre-incubated with 0.2 mL of chlorine-free incubation medium (125 mM Na-gluconate, 4.8 mM K-gluconate, 1.3 mM Ca-gluconate, 1.2 mM KH2PO4, 1.2 mM MgSO4, 5.6 mM D-glucose, 25 mM HEPES, pH 7.4), in the absence and presence of 4-[2-(5-amino-1H-pyrazol-4-yl)-4-chlorophenoxy]-5-chloro-2-fluoro-N-(1,3-thiazol-4-yl)benzenesulfonamide (0-30 μM), for 15 minutes at approximately 37° C. […] The concentrations of [^14C]-uric acid were determined by liquid scintillation counting (LSC). The inhibition of [^14C]-uric acid transport was also determined in the presence of the known inhibitor benzbromarone (30 μM). […]
The amount of radioactivity present in cell lysate samples was determined by liquid scintillation counting (LSC). […]

uric acid in blood [2] = assay: Multiple dose study (TS, 14 days): uric acid in blood of healthy and elderly subjects; type: in vivo, human
Method: as §1
(§2) Multiple oral doses of 4-[2-(5-amino-1H-pyrazol-4-yl)-4-chlorophenoxy]-5-chloro-2-fluoro-N-(1,3-thiazol-4-yl)benzenesulfonamide TS dispersion for oral administration, and placebo, were investigated for 14 days, as follows: • healthy subjects, 300 mg twice daily (BID,) • healthy subjects, 450 mg BID, and • elderly subjects, 300 mg BID.
(§3) Subjects were fasted overnight prior to the morning doses and for at least 2 hours prior to the evening doses. Food was withheld for at least 2 hours postdose.
A total of 49 subjects were enrolled in the study of which 39 received 4-[2-(5-amino-1H-pyrazol-4-yl)-4-chlorophenoxy]-5-chloro-2-fluoro-N-(1,3-thiazol-4-yl)benzenesulfonamide TS and 10 received placebo.

uric acid in urine [3] = assay: Multiple dose study (TS, 14 days): fraction of uric acid excreted in urine; type: in vivo, human; details: for Fraction excreted of uric acid: urine
Method: as §2, §3
Uric acid was also measured in urine collected over 24 hours prior to dosing on Day 1, and then on Days 6, 14 and 16. The percent excreted fraction of uric acid in urine was calculated and analyzed with a linear mixed effects model.

uric acid in blood [4] = assay: Single dose study: uric acid in blood of healthy subjects (colorimetric assay kit); type: in vivo, human; details: fasted
Method: as §1
Single doses of 4-[2-(5-amino-1H-pyrazol-4-yl)-4-chlorophenoxy]-5-chloro-2-fluoro-N-(1,3-thiazol-4-yl)benzenesulfonamide SDD (‘SDD’) dispersion for oral administration, ranging from 10 mg to 2400 mg, were investigated. In addition, single doses of 4-[2-(5-amino-1H-pyrazol-4-yl)-4-chlorophenoxy]-5-chloro-2-fluoro-N-(1,3-thiazol-4-yl)benzenesulfonamide tosylate (‘TS’) dispersion for oral administration, ranging from 200 mg to 1000 mg, were also investigated.
The following doses were investigated and all doses were given in the fasted state with the exception of 200 mg and 1000 mg SDD dispersions, which were given in both the fasted state and after a high-fat meal (‘fed’).
A total of 61 subjects (all male) participated and all received at least one dose of SDD or TS dispersion for oral administration.
Mean data of uric acid levels per dose group are given as follows: • SDD fasted: Table 5 • SDD fed and fasted Table 6 • TS Table 7

[5] = Stability of the tosylate salt versus free base and other salts; type: physicochemical
uric acid in urine [6] = assay: Multiple dose study (TS, 14 days): fraction of uric acid excreted in urine; type: in vivo, human; details: day 10
[7] = Aqueous solubility of the tosylate salt; type: physicochemical
[8] = TS oral 300 mg BID, elderly subjects, day 6
[9] = TS oral 300 mg BID, elderly subjects, day 14
[10] = TS oral 300 mg BID, healthy subjects, day 6
[11] = TS oral 300 mg BID, healthy subjects, day 14
[12] = TS oral 450 mg BID, healthy subjects, day 6
[13] = TS oral 450 mg BID, healthy subjects, day 14

In the case of `Nc1[nH]ncc1-c1cc(Cl)ccc1Oc1cc(F)c(S(=O)(=O)Nc2cscn2)cc1Cl` [4-[2-(5-amino-1H-pyrazol-4-yl)-4-chlorophenoxy]-5-chloro-2-fluoro-N-(1,3-thiazol-4-yl)benzenesulfonamide], the “subjects withdrawn due to adverse events” value (uric acid in blood [1]) is reported as “three”, the IC50 (URAT-1 transporter) is reported as 3.54 µM and the “median blood uric acid concentration versus LLN” value (uric acid in blood [2]; 450 mg BID, Day 3) is reported as “fell below LLN”. For the same compound, the “Concentrations of uric acid in blood following dosing” value (uric acid in blood [2]; TS BID for 14 days) was “decreased”, the “median blood uric acid concentration versus LLN” value (uric acid in blood [2]; all cohorts (300 mg and 450 mg BID), Day 6) was “below the LLN” and the “time until blood uric acid returned to above the LLN after cessation of dosing” value (uric acid in blood [2]; all subjects (i.e. by Day 16)) was at most 2 days. For the same compound, the “excreted fraction of uric acid in urine after dosing” value (uric acid in urine [3]; Day 16) was “returns to baseline by Day 16” and the “excreted fraction of uric acid in urine during dosing” value (uric acid in urine [3]; TS BID, 24 hour urine) was “increases during dosing”.

`Cc1ccc(S(=O)(=O)O)cc1.Nc1[nH]ncc1-c1cc(Cl)ccc1Oc1cc(F)c(S(=O)(=O)Nc2cscn2)cc1Cl` [TS, 4-[2-(5-amino-1H-pyrazol-4-yl)-4-chlorophenoxy]-5-chloro-2-fluoro-N-(1,3-thiazol-4-yl)benzenesulfonamide tosylate] gave a Mean uric acid (uric acid in blood [4]; TS oral single dose 200 mg, 0 hours) of 5.92 mg/dL, a Mean uric acid (uric acid in blood [4]; TS oral single dose 200 mg, 48 hours) of 5.43 mg/dL and a Mean uric acid (uric acid in blood [4]; TS oral single dose 600 mg, 0 hours) of 6.21 mg/dL. For the same compound, the Mean uric acid (uric acid in blood [4]; TS oral single dose 600 mg, 48 hours) was 5.04 mg/dL, the Mean uric acid (uric acid in blood [4]; TS oral single dose 1000 mg, 0 hours) was 6.40 mg/dL and the Mean uric acid (uric acid in blood [4]; TS oral single dose 1000 mg, 48 hours) was 4.86 mg/dL. For the same compound, the solid form stability ([5]; crystalline form, versus free base) was “better solid form stability than the free base”, the “stability with regard to disassociation” value ([5]; versus other salts) was “greater stability with regard to disassociation than other salts” and the chemical stability ([5]; with regard to formulation and storage, versus free base) was “improved chemical stability over the free base”. The “Fraction excreted of uric acid” value (uric acid in urine [6]; TS oral 300 mg BID, elderly subjects) was 13.02%, the “Fraction excreted of uric acid” value (uric acid in urine [6]; TS oral 300 mg BID, healthy subjects) was 14.99% and the “Fraction excreted of uric acid” value (uric acid in urine [6]; TS oral 450 mg BID, healthy subjects) was 17.09%. For the same compound, the aqueous solubility [7] was “good aqueous solubility”, the Mean uric acid (uric acid in blood [2]; TS oral 300 mg BID for 14 days, elderly subjects, day 0) was 5.43 mg/dL and the Mean uric acid (uric acid in blood [2]; TS oral 300 mg BID for 14 days, healthy subjects, day 0) was 5.56 mg/dL. It also gave a Mean uric acid (uric acid in blood [2]; TS oral 300 mg BID, elderly subjects, day 3) of 3.41 mg/dL, a Mean uric acid (uric acid in blood [2]; [8]) of 2.99 mg/dL and a Mean uric acid (uric acid in blood [2]; TS oral 300 mg BID, elderly subjects, day 8) of 3.57 mg/dL. The Mean uric acid (uric acid in blood [2]; TS oral 300 mg BID, elderly subjects, day 10) was 3.37 mg/dL, the Mean uric acid (uric acid in blood [2]; [9]) was 3.59 mg/dL and the Mean uric acid (uric acid in blood [2]; TS oral 300 mg BID, healthy subjects, day 3) was 3.50 mg/dL. It also gave a Mean uric acid (uric acid in blood [2]; [10]) of 3.23 mg/dL, a Mean uric acid (uric acid in blood [2]; TS oral 300 mg BID, healthy subjects, day 8) of 3.54 mg/dL and a Mean uric acid (uric acid in blood [2]; TS oral 300 mg BID, healthy subjects, day 10) of 3.79 mg/dL. For the same compound, the Mean uric acid (uric acid in blood [2]; [11]) was 3.78 mg/dL, the Mean uric acid (uric acid in blood [2]; TS oral 450 mg BID for 14 days, healthy subjects, day 0) was 5.89 mg/dL and the Mean uric acid (uric acid in blood [2]; TS oral 450 mg BID, healthy subjects, day 3) was 3.05 mg/dL. The Mean uric acid (uric acid in blood [2]; [12]) was 3.00 mg/dL, the Mean uric acid (uric acid in blood [2]; TS oral 450 mg BID, healthy subjects, day 8) was 3.21 mg/dL and the Mean uric acid (uric acid in blood [2]; TS oral 450 mg BID, healthy subjects, day 10) was 3.45 mg/dL. For the same compound, the Mean uric acid (uric acid in blood [2]; [13]) was 3.56 mg/dL, the “Fraction excreted of uric acid” value (uric acid in urine [3]; TS oral 300 mg BID, elderly subjects, day 1) was 6.17% and the “Fraction excreted of uric acid” value (uric acid in urine [3]; [8]) was 13.79%. For the same compound, the “Fraction excreted of uric acid” value (uric acid in urine [3]; [9]) was 7.66%, the “Fraction excreted of uric acid” value (uric acid in urine [3]; TS oral 300 mg BID, healthy subjects, day 1) was 8.44% and the “Fraction excreted of uric acid” value (uric acid in urine [3]; [10]) was 17.41%. For the same compound, the “Fraction excreted of uric acid” value (uric acid in urine [3]; [11]) was 6.43%, the “Fraction excreted of uric acid” value (uric acid in urine [3]; TS oral 450 mg BID, healthy subjects, day 1) was 8.61% and the “Fraction excreted of uric acid” value (uric acid in urine [3]; [12]) was 19.81%. The “Fraction excreted of uric acid” value (uric acid in urine [3]; [13]) was 7.69%.
